Measured values as given in PubChem BioAssay AID328 (DTP/NCI, 2004).
“And” between values parts separate entries of the source, which are not always exact repeats. Identical values can stand only once. Toxic doses and inconclusive results are not listed.

Tested on: BDF1 mice, P388 leukemia ip, median survival T/C
Assay: NCI In Vivo Anticancer Drug Screen. Data for tumor model P388 Leukemia (intraperitoneal) in B6D2F1 (BDF1) mice
Settings: endpoint: median survival time, higher = longer survival
In short: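 Mice carrying the transplantable tumour receive compound or vehicle. Survival is followed in each arm, and the treated measure is divided by the vehicle measure.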

[1] = dose: 12.5 mg/kg/injection, schedule: Q01DX009 (ip), vehicle: saline
[2] = dose: 50.0 mg/kg/injection, schedule: Q01DX009 (ip), vehicle: saline with Tween-80
[3] = dose: 100.0 mg/kg/injection, schedule: Q01DX009 (ip), vehicle: saline with Tween-80
[4] = dose: 100.0 mg/kg/injection, schedule: Q04DX003 (ip), vehicle: saline with Tween-80
[5] = dose: 200.0 mg/kg/injection, schedule: Q01DX009 (ip), vehicle: saline with Tween-80

Structure (SMILES): [O]=[Cr](=[O])([OH])[O][Cr](=[O])(=[O])[OH]
- T/C (dose: 6.25 mg/kg/injection, schedule: Q01DX009 (ip), vehicle: saline): 113 % of control
- T/C [1]: 100 % of control

Structure (SMILES): COC(=O)C1(N)CCCC1
- T/C (dose: 100.0 mg/kg/injection, schedule: Q01DX009 (ip), vehicle: saline): 91 % of control
- T/C (dose: 200.0 mg/kg/injection, schedule: Q01DX009 (ip), vehicle: saline): 104 % of control

Structure (SMILES): CN(C)CCOCN1COCC1(C)C
- T/C [2]: 120 % of control

Structure (SMILES): COc1cccc2c1C(=O)c1c(O)c3c(c(O)c1C2=O)C[C@@](O)(C(C)=O)C[C@@H]3OC1CC(N(Cc2ccccc2)Cc2ccccc2)C(O)C(C)O1 (stereo not given in full)
- T/C (dose: 37.5 mg/kg/injection, schedule: Q04DX003 (ip), vehicle: water): 227 % of control
- T/C (dose: 150.0 mg/kg/injection, schedule: Q04DX003 (ip), vehicle: water): 100 % of control
- T/C (dose: 300.0 mg/kg/injection, schedule: Q04DX003 (ip), vehicle: water): 102 % of control

Structure (SMILES): COC(=O)C(CC(=O)c1ccccc1)NCc1ccccc1 (stereo not given)
- T/C (dose: 100.0 mg/kg/injection, schedule: Q01DX001 (ip), vehicle: saline with Tween-80): 100 % of control
- T/C (dose: 200.0 mg/kg/injection, schedule: Q01DX001 (ip), vehicle: saline with Tween-80): 95 % of control
- T/C (dose: 400.0 mg/kg/injection, schedule: Q01DX001 (ip), vehicle: saline with Tween-80): 100 % of control

Structure (SMILES): C=C1CC(C2CCC(C)(C)C2)OC1=O (stereo not given)
- T/C (dose: 25.0 mg/kg/injection, schedule: Q04DX002 (ip), vehicle: saline with Tween-80): 102 % of control
- T/C (dose: 50.0 mg/kg/injection, schedule: Q04DX002 (ip), vehicle: saline with Tween-80): 100 % of control

Structure (SMILES): CC(=O)OCC(COC(C)=O)=C1N=C(c2ccccc2)OC1=O
- T/C [2]: 107 % of control
- T/C [3]: 96 % of control
- T/C [4]: 118 % of control
- T/C [5]: 115 % of control
- T/C (dose: 400.0 mg/kg/injection, schedule: Q04DX003 (ip), vehicle: saline with Tween-80): 118 % of control

Structure (SMILES): C[N+]1(C2CCC3CCC2C3O)CCOCC1 (stereo not given)
- T/C [1]: 91 % of control and 92 % of control
- T/C (dose: 25.0 mg/kg/injection, schedule: Q01DX009 (ip), vehicle: saline): 100 % of control
- T/C (dose: 50.0 mg/kg/injection, schedule: Q01DX009 (ip), vehicle: saline): 91 % of control and 92 % of control
- T/C (dose: 100.0 mg/kg/injection, schedule: Q04DX003 (ip), vehicle: saline): 100 % of control and 90 % of control
- T/C (dose: 200.0 mg/kg/injection, schedule: Q04DX003 (ip), vehicle: saline): 90 % of control

Structure (SMILES): Clc1nc2nc(C(Cl)(Cl)Cl)[nH]c2nc1Cl
- T/C (dose: 12.5 mg/kg/injection, schedule: Q01DX009 (ip), vehicle: Klucel (hydroxypropylcellulose) (HPC)): 95 % of control
- T/C (dose: 25.0 mg/kg/injection, schedule: Q01DX009 (ip), vehicle: Klucel (hydroxypropylcellulose) (HPC)): 108 % of control
- T/C (dose: 50.0 mg/kg/injection, schedule: Q01DX009 (ip), vehicle: Klucel (hydroxypropylcellulose) (HPC)): 116 % of control

Structure (SMILES): Cc1cc2nc3c(=O)[nH]c(=O)nc-3n(CC(O)C(O)C(O)CO)c2cc1C (stereo not given)
- T/C (dose: 12.5 mg/kg/injection, schedule: Q01DX009 (ip), vehicle: saline with Tween-80): 102 % of control
- T/C (dose: 25.0 mg/kg/injection, schedule: Q01DX009 (ip), vehicle: saline with Tween-80): 94 % of control
- T/C [2]: 107 % of control

Structure (SMILES): COc1ccccc1NC(=O)O/N=C/c1ccccn1
- T/C (dose: 100.0 mg/kg/injection, schedule: Q01DX001 (ip), vehicle: other): 100 % of control
- T/C (dose: 200.0 mg/kg/injection, schedule: Q01DX001 (ip), vehicle: other): 95 % of control
- T/C (dose: 400.0 mg/kg/injection, schedule: Q01DX001 (ip), vehicle: other): 95 % of control

Structure (SMILES): CCC(=O)O[C@H]1CC[C@H]2[C@@H]3CCC4=CC(=O)C[C@]4(C)[C@H]3CC[C@]12C
- T/C [2]: 100 % of control
- T/C [3]: 100 % of control
- T/C [4]: 110 % of control
- T/C [5]: 113 % of control
- T/C (dose: 200.0 mg/kg/injection, schedule: Q04DX003 (ip), vehicle: saline with Tween-80): 105 % of control

Structure (SMILES): CCCCCCCCCCCC(O)CCCCC (stereo not given)
- T/C (dose: 100.0 mg/kg/injection, schedule: Q01DX009 (ip), vehicle: other): 120 % of control
- T/C (dose: 200.0 mg/kg/injection, schedule: Q01DX009 (ip), vehicle: other): 115 % of control
- T/C (dose: 400.0 mg/kg/injection, schedule: Q01DX009 (ip), vehicle: other): 115 % of control
